“Also recorded” adds a separate entry of the source. Bridge positions count the residues as written; N and C are the ends. Ends that are not written are not given here.
What was measured:
RhoprCCAPR [1] = test: Functional receptor expression (aequorin bioluminescence, calcium mobilization) assay in CHO-WTA11 cells; assay type: cell-based, Rhodnius prolixus; settings: for Activation of RhoprCCAPR (in words): CHO-WTA11 cells expressing RhoprCCAPR, bioluminescent response
Protocol: The coding region of RhoprCCAPR (1,128 bp) (RhoprCCAPR) was amplified from unfed 5th instar CNS cDNA with gene specific primers (Table 1C) using a Q5 High fidelity DNA polymerase (New England Biolabs, Pickering, ON). At the 5′ end before the ATG initiation codon, the Kozak translation initiation sequence ([…]) was introduced since this is required for optimal translation by eukaryotic ribosomes (Table 1C) [26]–[28]. The PCR product was run on a 0.8% agarose gel for 40 mins (160V) and the correct size of band was excised and purified (Promega, Madison, WI, USA). This was then subcloned into the pGEM T easy vector (Promega, Madison, WI) to verify its sequence. The insert with the Kozak sequence was excised using restriction enzyme (NotI) and subcloned into the expression vector, pcDNA™3.1(+) (Invitrogen, Carlsbad, CA) to express in Chinese hamster ovary (CHO-K1) WTA11, mammalian cells (Euroscreen S. A., Belgium; provided by Prof. Dr. M. Parmentier and Dr. M. Detheux; Brussels, Belgium).
RhoprCCAPR was transiently expressed in CHO-WTA11 cells that stably express promiscuous Gα16 and apoaequorin. This cell line has been used extensively for insect GPCR functional assays. The transfection was performed using X-treme HP DNA transfection reagent (Roche Applied Science, Indianapolis, IN) with the ratio of 3 (transfection reagent) to 1 (RhoprCCAPR/pcDNA™3.1(+) or empty pcDNA™3.1(+) vector) according to the manufacture’s protocol (Roche Applied Science, Indianapolis, IN). Cells were grown in the complete Dulbecco’s Modified Eagle Medium Nutrient Mixture F12-Ham (DMEM/F12, 10% fetal bovine serum, FBA, 100 IU/ml penicillin/streptomycin (Invitrogen, Carlsbad, CA)) in the 5% CO2 37°C incubator. After 48 hours, transfected cells were incubated with 5 µM Coelentarazine for 4 hours (Invitrogen, Carlsbad, CA) at room temperature in the dark. Interaction between ligand and the cloned RhoprCCAPR leads to a bioluminescent response that is mediated by the IP3/Ca^2+ signaling pathway. The luminescence assay was performed on opaque 96-well microplates (Corning, Lowell, MA). 50 µl of cells were introduced into each well of the 96-well plate that contained either controls or different concentration of peptides (RhoprCCAP, RhoprCorazonin, RhoprAKH and GNDNFMRFa) (Table 2) and the changes of luminescence were recorded for 20 sec. Wells only containing DMEM/0.1% BSA medium served as a negative control, while wells containing 50nM ATP served as a positive control. All luminescence values were corrected for background values from wells containing only DMEM/BSA medium and all values were calculated as maximum percentage difference. The response for each ligand concentration in replica wells and from at least three replica plates was averaged for analysis. GraphPad prism 5 (version 5.03) was used to analyze and generate the data.

[2] = tested on: oviduct of Locusta migratoria; settings: cited from earlier work
Excerpt: (§1) Crustacean cardioactive peptide (CCAP) is a cyclic nonapeptide that is conserved in arthropods. CCAP was first isolated as a cardioaccelerator from the pericardial organs of the shore crab, Carcinus maenas, [8]. Later, it was biochemically isolated from the nervous system of insects, [10]. The important functions of CCAP in insects have been well documented.

[3] = tested on: heart rate in Manduca sexta; settings: cited from earlier work
Excerpt: as §1

[4] = tested on: heart rate in Drosophila melanogaster; settings: cited from earlier work
Excerpt: as §1

hindgut of R. prolixus = tested on: hindgut of R. prolixus; parameters: method as in earlier work; settings: dose-dependent; ref 31 (so in the source); cited from earlier work
[5] = tested on: midgut α-amylase and protease activity; settings: cited from earlier work
Excerpt: Crustacean cardioactive peptide (CCAP) is a cyclic nonapeptide that is conserved in arthropods. CCAP was first isolated as a cardioaccelerator from the pericardial organs of the shore crab, Carcinus maenas, [8]. Later, it was biochemically isolated from the nervous system of insects, [10]. The important functions of CCAP in insects have been well documented. […] The CCAP may act in a paracrine manner, released from CCAP-containing midgut endocrine cells, [44].

[6] = tested on: dorsal vessel of R. prolixus; test: In vitro heartbeat (dorsal vessel preparation, impedance converter); parameters: species or system Rhodnius prolixus
Protocol: Adult R. prolixus were anesthetized with CO2 for 10 sec and 1 µl of 2 µg of dsCCAPR was injected into the thorax using a 5 µl Hamilton syringe to knock down RhoprCCAPR transcript levels. As a control, groups of R. prolixus were injected with either 1 µl of dsARG or had no injection. R. prolixus were left for 1 hour at room temperature to recover and then placed into an incubator at 28°C on a 16 h:8 h light/dark cycle.
In vitro heartbeat was monitored as described in Lee and Lange (2011) with minor modifications. The ventral cuticle, digestive and reproductive systems were dissected and removed under RNase free saline. The dorsal vessel and dorsal diaphragm remained attached to the dorsal cuticle. Then, the dorsal cuticle was placed onto a Sylgard-coated dissecting dish and covered with 100 µL of saline. Electrodes attached to an impedance converter (UFI model 2991, Morro Bay, CA, USA) were placed between the fifth and sixth abdominal segments on either side of the dorsal vessel anterior to the alary. The preparation was stabilized in 100 µL of saline for 10 min at room temperature, and then 50 µL of 10^−9M CCAP was exchanged for 50 µL of saline. Heartbeat frequency was measured from the traces observed on a Linear Flat-bed single channel chart recorder. The preparation was washed with saline for 5 mins post application of CCAP. Heartbeat frequency was determined for 1 min before and after the application of 10^−9M CCAP. The response to 10^−9M CCAP was quantified by measuring the increase in frequency compared to saline, which was then expressed as a percentage of the maximum change in frequency for each preparation. Pools of tissues including dorsal vessel/fat body/trachea were collected and the percentage of knockdown was measured by qPCR as indicated above.

RhoprCCAPR [7] = test: Calcium mobilization assay with RhoprCCAPR expressed in CHO-K1 cells; assay type: cell-based, Rhodnius prolixus; settings: without promiscuous Gα, read-out: EC50 using CHO-K1 cells
Protocol: To determine the endogenous ligand for the isolated putative RhoprCCAPR in R. prolixus, we used a calcium mobilization assay which expresses the RhoprCCAPR clone in CHO-K1 cells. […] The receptor was not activated by other peptides that were tested, including RhoprAKH, RhoprCorazonin and an extended RhoprFMRFa, GNDNFMRFa (Figure 5A, 5B, Table 2). […] Thus, our control data illustrate that the functional receptor assay system is only activated in cells that are transfected with RhoprCCAPR and not by any endogenous receptors in these CHO cells.

CCAPR2 = settings: read-out: EC50, T. castaneum CCAPR2; cited from earlier work
Excerpt: (§2) The improved sensitivity of this cell line over CHO-K cells is due to presence of the promiscuous Gα proteins.

CCAP receptor (CG6111) = settings: read-out: EC50, D. melanogaster CCAP receptor (CG6111); cited from earlier work
Excerpt: as §2

CCAPR1 = settings: read-out: EC50, T. castaneum CCAPR1; cited from earlier work
Excerpt: as §2

CCAP receptor = settings: read-out: EC50, A. gambiae CCAP receptor; cited from earlier work
Excerpt: as §2

corpora cardiaca = settings: 33 (so in the source); cited from earlier work
Excerpt: (§3) Also, these peptides are functionally inter-related. […] [33]. In M. sexta, AKH mobilize lipids from the fat body during flight or locomotion when heartbeat frequency also increases.

[8] = tested on: heartbeat frequency in some insects; settings: 34 (so in the source); cited from earlier work
Excerpt: as §3

heart of R. prolixus = settings: cited from earlier work
[9] = CHO-WTA11 cells stably expressing Gα16 and apoaequorin, luminescence recorded 20 sec, averaged from at least three replica plates

GNDNFMRF-NH2 [ExtendedFMRFa]
Activation of RhoprCCAPR (in words) (RhoprCCAPR [1]; listed as GNDNFMRFa): not activated
EC50 (M) RhoprCCAPR (RhoprCCAPR [1]; [9]): Not active

PFCNAFTGC-NH2 (disulfide 3-9 (inferred)) [RhoprCCAP]
Effect on oviduct contractions [2]: modulates oviduct contractions
Effect on heart rate, M. sexta [3]: triggers increasing heart rate
Effect on heart rate, D. melanogaster [4]: triggers increasing heart rate
Effect on hindgut contraction (hindgut of R. prolixus): increases heartbeat frequency and contraction in a dose-dependent manner
Effect on enzyme secretion, P. americana [5]: regulates enzyme secretion
Effect on α-amylase and protease activity ([5]; isolated midgut): increases α-amylase and protease activity
Effect of CCAP on heartbeat after RhoprCCAPR knockdown (in words) ([6]; 10^−9 M CCAP, RhoprCCAPR knocked down by dsCCAPR, in vitro): loss of function; also recorded: unresponsive; also recorded: eliminates the CCAP-induced increase in vitro; also recorded: cardioacceleratory effect is abolished
In vitro heartbeat frequency in the presence of 10^−9 M CCAP, dsARG treated bugs ([6]; dsARG-treated bugs, saline baseline 10.4±2.9, paired t test p = 0.0376, vs dsCCAPR unpaired p = 0.0318, mean ± SEM, n = 5 (Figure 6)): 15.6±3.9 beats/min
In vitro heartbeat frequency in the presence of 10^−9 M CCAP, dsCCAPR treated bugs ([6]; dsCCAPR-treated bugs, saline baseline 5.4±3.0, paired t test p = 0.1688, vs dsARG unpaired p = 0.0318, mean ± SEM, n = 5 (Figure 6)): 4.6±3.3 beats/min
EC50 (RhoprCCAPR [7]): 341 ± 8.8 nM
EC50 (RhoprCCAPR [1]; [9]): 12.2 nM
EC50 (CCAPR2): 22 nM
EC50 (CCAP receptor (CG6111)): 0.54 nM
EC50 (CCAPR1): 624 nM
EC50 (CCAP receptor): 1 nM
Effect on AKH release (corpora cardiaca): influences AKH release
Effect on heartbeat frequency in some insects [8]: increase heartbeat frequency
Effect on heartbeat frequency in the heart, R. prolixus (Discussion) (heart of R. prolixus; dose-dependent, ref 31 (so in the source)): increases heartbeat frequency and contraction in a dose-dependent manner
Effect on heartbeat frequency, R. prolixus (heart of R. prolixus; in vitro, 5th instar): increases heartbeat frequency in vitro; also recorded: increases the frequency of the heartbeat in R. prolixus in a reversible, dose-dependent manner

pQLTFSTDW-NH2 [RhoprAKH, adipokinetic hormone, pQLTFSTDW-NH2]
Activation of RhoprCCAPR (in words) (RhoprCCAPR [1]): not activated
Activation of RhoprCCAPR (in words) (RhoprCCAPR [1]; listed as AKH): neither AKH nor corazonin activate the RhoprCCAPR
EC50 (M) RhoprCCAPR (RhoprCCAPR [1]; [9]): Not active
Effect on heartbeat frequency in some insects [8]: increase heartbeat frequency

pQTFQYSRGWTN-NH2 [Corazonin]
Activation of RhoprCCAPR (in words) (RhoprCCAPR [1]): neither AKH nor corazonin activate the RhoprCCAPR
Activation of RhoprCCAPR (in words) (RhoprCCAPR [1]; listed as RhoprCorazonin): not activated
EC50 (M) RhoprCCAPR (RhoprCCAPR [1]; [9]): Not active
Effect on heartbeat frequency in some insects [8]: increase heartbeat frequency

— article PMC3706402, “Identification and Expression of the CCAP Receptor in the Chagas’ Disease Vector, Rhodnius prolixus, and Its Involvement in Cardiac Control” (PLoS ONE, 2013)
